Data set [1] concerns Trypanosoma brucei rhodesiense. Nature of the data set: Antitrypanosomal activity against wild-type Trypanosoma brucei rhodesiense STIB900 infected in NMRI mouse assessed as survival of mouse at 50 mg/kg, po for 4 days. The format is functional.
The subject of data set [2] is Trypanosoma brucei rhodesiense. Nature of the data set: Antitrypanosomal activity against wild-type Trypanosoma brucei rhodesiense STIB900 infected in NMRI mouse assessed as survival of mouse at 15 mg/kg, po for 4 days. The data set is classed as functional.
Data set [3] deals with Trypanosoma brucei rhodesiense. Nature of the data set: Antitrypanosomal activity against wild-type Trypanosoma brucei rhodesiense STIB900 infected in NMRI mouse assessed as cure from infection at 15 mg/kg, po for 4 days. The data set is classed as functional, organism-based. The arrangement: dose 15 mg/kg.
Data set [4] relates to Trypanosoma brucei rhodesiense. Nature of the data set: Antitrypanosomal activity against wild-type Trypanosoma brucei rhodesiense STIB900 by Alamar blue assay. The data set is classed as functional, organism-based.
In data set [5] the test system is Trypanosoma brucei gambiense. In words: Antitrypanosomal activity against Trypanosoma brucei gambiense STIB930 by Alamar blue assay. The data set is classed as functional, organism-based.
Data set [6] concerns Trypanosoma brucei gambiense. Nature of the data set: Antitrypanosomal activity against Trypanosoma brucei gambiense K03048 by Alamar blue assay. The format is functional, organism-based.
The test system of data set [7] is Trypanosoma brucei brucei. In words: Ratio of IC50 for Trypanosoma brucei brucei AT1KO to IC50 for Trypanosoma brucei brucei BS221. The format is functional.
Data set [8] can be described thus: Ratio of IC50 for Trypanosoma brucei gambiense STIB930 to IC50 for wild-type Trypanosoma brucei rhodesiense […]. The data set is classed as functional.
Data set [9] deals with Trypanosoma brucei rhodesiense. In words: Antitrypanosomal activity against wild-type Trypanosoma brucei rhodesiense STIB900 infected in NMRI mouse assessed as survival of mouse at 5 mg/kg, ip for 4 days. The format is functional. The settings on record: route intraperitoneal.
Data set [10] has as its system Trypanosoma brucei rhodesiense. Nature of the data set: Ratio of IC50 for melasoprol-resistant Trypanosoma brucei rhodesiense STIB900 to IC50 for wild-type Trypanosoma brucei rhodesiense […]. The data set is classed as functional.
Data set [11] is described as follows: Ratio of IC50 for Trypanosoma brucei gambiense K03048 to IC50 for wild-type Trypanosoma brucei rhodesiense STIB900. The format is functional.
Data set [12] has as its system Mus musculus. In words: Toxicity in NMRI mouse CNS model at 25 mg/kg, ip for 10 days. The arrangement: dose 25 mg/kg, route intraperitoneal. The settings on record: in vivo, 240 h. The format is organism-based.
The subject of data set [13] is Trypanosoma brucei brucei. In words: Antitrypanosomal activity against Trypanosoma brucei brucei GVR35 infected in NMRI mouse CNS model assessed as cure from infection at 20 mg/kg, ip for 5 days. The format is functional, organism-based. The arrangement: dose 20 mg/kg.
Data set [14] relates to Trypanosoma brucei rhodesiense. In words: Ratio of IC50 for pentamidine-resistant Trypanosoma brucei rhodesiense STIB900 to IC50 for wild-type Trypanosoma brucei rhodesiense STIB900. The format is functional.
Data set [15] relates to Trypanosoma brucei brucei. Nature of the data set: Antitrypanosomal activity against Trypanosoma brucei brucei GVR35 infected in NMRI mouse CNS model assessed as survival of mouse at 20 mg/kg, ip for 5 days. The format is functional. The conditions noted are these: route intraperitoneal.
Data set [16] has as its system Trypanosoma brucei brucei. In words: Antitrypanosomal activity against Trypanosoma brucei brucei GVR35 infected in NMRI mouse CNS model assessed as survival of mouse at 10 mg/kg, ip for 10 days. The data set is classed as functional. The settings on record: route intraperitoneal.
Data set [17] concerns Trypanosoma brucei brucei. Nature of the data set: Antitrypanosomal activity against Trypanosoma brucei brucei AT1KO by Alamar blue assay. The format is functional, organism-based.
In data set [18] the test system is Trypanosoma brucei rhodesiense. Nature of the data set: Antitrypanosomal activity against melasoprol-resistant Trypanosoma brucei rhodesiense STIB900 by Alamar blue assay. The data set is classed as functional, organism-based.
In data set [19] the test system is Trypanosoma brucei gambiense. In words: Antitrypanosomal activity against Trypanosoma brucei gambiense ITMAP141267 by Alamar blue assay. The data set is classed as functional, organism-based.
Data set [20] deals with Trypanosoma brucei brucei. In words: Antitrypanosomal activity against Trypanosoma brucei brucei BS221 by Alamar blue assay. The data set is classed as functional, organism-based.
Data set [21] in a line: Ratio of IC50 for Trypanosoma brucei gambiense ITMAP141267 to IC50 for wild-type Trypanosoma brucei rhodesiense […]. The data set is classed as functional.
Data set [22] deals with Trypanosoma brucei rhodesiense. Nature of the data set: Antitrypanosomal activity against pentamidine-resistant Trypanosoma brucei rhodesiense STIB900 by Alamar blue assay. The data set is classed as functional, organism-based.
Data set [23] deals with Trypanosoma brucei gambiense. Nature of the data set: Ratio of IC50 for Trypanosoma brucei gambiense K03048 to IC50 for Trypanosoma brucei gambiense STIB930. The format is functional.
Data set [24] has as its system Trypanosoma brucei rhodesiense. Nature of the data set: Antitrypanosomal activity against wild-type Trypanosoma brucei rhodesiense STIB900 infected in NMRI mouse assessed as survival of mouse at 20 mg/kg, ip for 4 days. The settings on record: route intraperitoneal. The format is functional.
Data set [25] has as its system Trypanosoma brucei rhodesiense. In words: Antitrypanosomal activity against wild-type Trypanosoma brucei rhodesiense STIB900 infected in NMRI mouse assessed as survival of mouse at 75 mg/kg, po for 4 days. The format is functional.
The test system of data set [26] is Trypanosoma brucei rhodesiense. Nature of the data set: Antitrypanosomal activity against wild-type Trypanosoma brucei rhodesiense STIB900 infected in NMRI mouse assessed as cure from infection at 75 mg/kg, po for 4 days. The arrangement: dose 75 mg/kg. The data set is classed as functional, organism-based.
In data set [27] the test system is Trypanosoma brucei brucei. In words: Antitrypanosomal activity against Trypanosoma brucei brucei GVR35 infected in NMRI mouse CNS model assessed as survival of mouse at 75 mg/kg, po for 5 days. The format is functional.
Data set [28] relates to Trypanosoma brucei rhodesiense. In words: Antitrypanosomal activity against wild-type Trypanosoma brucei rhodesiense STIB900 infected in NMRI mouse assessed as survival of mouse at 2.5 mg/kg, po for 4 days. The format is functional.
In data set [29] the test system is Trypanosoma brucei brucei. Nature of the data set: Antitrypanosomal activity against Trypanosoma brucei brucei GVR35 infected in NMRI mouse CNS model assessed as survival of mouse at 25 mg/kg, po for 10 days. The data set is classed as functional.
Data set [30] relates to Trypanosoma brucei brucei. Nature of the data set: Antitrypanosomal activity against Trypanosoma brucei brucei GVR35 infected in NMRI mouse CNS model assessed as survival of mouse at 50mg/kg, po for 10 days. The data set is classed as functional.
The subject of data set [31] is Trypanosoma brucei rhodesiense. In words: Antitrypanosomal activity against wild-type Trypanosoma brucei rhodesiense STIB900 infected in NMRI mouse assessed as survival of mouse at 5 mg/kg, po for 4 days. The data set is classed as functional.
Data set [32] relates to Trypanosoma brucei brucei. In words: Antitrypanosomal activity against Trypanosoma brucei brucei GVR35 infected in NMRI mouse CNS model assessed as cure from infection at 100 mg/kg, po for 5 days. The arrangement: dose 100 mg/kg. The data set is classed as functional, organism-based.
For data set [33], the system named is Trypanosoma brucei brucei. In words: Antitrypanosomal activity against Trypanosoma brucei brucei GVR35 infected in NMRI mouse CNS model assessed as cure from infection at 10 mg/kg, po for 10 days. The data set is classed as functional, organism-based. The arrangement: dose 10 mg/kg.
The subject of data set [34] is Trypanosoma brucei brucei. In words: Antitrypanosomal activity against Trypanosoma brucei brucei GVR35 infected in NMRI mouse CNS model assessed as survival of mouse at 100 mg/kg, po for 5 days. The format is functional.
Data set [35] relates to Trypanosoma brucei rhodesiense. In words: Antitrypanosomal activity against wild-type Trypanosoma brucei rhodesiense STIB900 infected in NMRI mouse assessed as cure from infection at 25 mg/kg, po for 4 days. Also noted: dose 25 mg/kg. The format is functional, organism-based.
In data set [36] the test system is Trypanosoma brucei brucei. Nature of the data set: Antitrypanosomal activity against Trypanosoma brucei brucei GVR35 infected in NMRI mouse CNS model assessed as survival of mouse at 50 mg/kg, po for 5 days. The format is functional.
Data set [37] concerns Trypanosoma brucei rhodesiense. In words: Antitrypanosomal activity against wild-type Trypanosoma brucei rhodesiense STIB900 infected in NMRI mouse assessed as survival of mouse at 25 mg/kg, po for 4 days. The format is functional.
Data set [38] relates to Trypanosoma brucei rhodesiense. Nature of the data set: Antitrypanosomal activity against wild-type Trypanosoma brucei rhodesiense STIB900 infected in NMRI mouse assessed as cure from infection at 2.5 mg/kg, po for 4 days. The data set is classed as functional, organism-based. The arrangement: dose 2.5 mg/kg.
For data set [39], the system named is Trypanosoma brucei brucei. Nature of the data set: Antitrypanosomal activity against Trypanosoma brucei brucei GVR35 infected in NMRI mouse CNS model assessed as survival of mouse at 25 mg/kg, po for 5 days. The format is functional.
For data set [40], the system named is Trypanosoma brucei brucei. In words: Antitrypanosomal activity against Trypanosoma brucei brucei GVR35 infected in NMRI mouse CNS model assessed as survival of mouse at 10 mg/kg, po for 10 days. The data set is classed as functional.
The subject of data set [41] is Trypanosoma brucei brucei. Nature of the data set: Antitrypanosomal activity against Trypanosoma brucei brucei GVR35 infected in NMRI mouse CNS model assessed as cure from infection at 100 mg/kg, po for 10 days. Also noted: dose 100 mg/kg. The format is functional, organism-based.
Data set [42] deals with Trypanosoma brucei brucei. In words: Antitrypanosomal activity against Trypanosoma brucei brucei GVR35 infected in NMRI mouse CNS model assessed as cure from infection at 25 mg/kg, po for 5 days. The data set is classed as functional, organism-based. Also noted: dose 25 mg/kg.
Data set [43] relates to Trypanosoma brucei brucei. Nature of the data set: Antitrypanosomal activity against Trypanosoma brucei brucei GVR35 infected in NMRI mouse CNS model assessed as survival of mouse at 100 mg/kg, po for 10 days. The format is functional.
For data set [44], the system named is Trypanosoma brucei rhodesiense. In words: Antitrypanosomal activity against wild-type Trypanosoma brucei rhodesiense STIB900 infected in NMRI mouse assessed as cure from infection at 50 mg/kg, po for 4 days. The data set is classed as functional, organism-based. Also noted: dose 50 mg/kg.

Converted amounts (≈) assume the structure as drawn. The source made the active and inactive calls. The calls are words filed in the database; no cut-off is given here.

In the case of `CO/N=C(/N)c1ccc(-c2ccc(-c3ccc(/C(N)=N/O)cc3)o2)cc1`, the MSD was above 56 days in data set [1] and 30.25 days in [2]. In [3], the result was inactive.

Regarding `N=C(N)c1ccc(-c2ccc(-c3ccc(C(=N)N)cc3)o2)cc1` [FURAMIDINE], the IC50 in data set [4] turned out to be 1 ng/mL (≈ 0.00329 µM); in [5], 5.1 ng/mL (≈ 0.0168 µM); in [6], 4.2 ng/mL (≈ 0.0138 µM); in data set [17], 15.8 ng/mL (≈ 0.0519 µM); in data set [18], 19 ng/mL (≈ 0.0624 µM); in data set [19], 3.1 ng/mL (≈ 0.0102 µM). Also, the IC50 in data set [20] stood at 1.2 ng/mL (≈ 0.00394 µM); in data set [22], 14.3 ng/mL (≈ 0.047 µM). Also, the “Ratio IC50” value in data set [7] stood at 13.1; in data set [8], 5.3; in [10], 19.5; in data set [11], 4.3; in [14], 14.7; in [21], 3.2. For the same molecule, the “Ratio IC50” value in [23] was 14. Moreover, the MSD in data set [9] was above 46 days; in [15], above 132.3 days; in data set [16] it was above 112 days; in data set [24], above 57.75 days. Further, the Activity result in data set [12] is “Toxic”. The outcome in [13] was inactive.

As to `N/C(=N\O)c1ccc(-c2ccc(-c3ccc(/C(N)=N\O)cn3)o2)nc1`, the MSD in data set [25] worked out at 18 days. The result in data set [26] was inactive.

For the molecule `CO/N=C(\N)c1ccc(-c2ccc(-c3ccc(/C(N)=N/OC)cn3)o2)cc1`, the MSD was above 172 days in [27]; 19.5 days in data set [28]; above 149.6 days in [29]; above 180 days in data set [30]; above 50.25 days in [31]; above 180 days in [34]. Besides, the MSD in data set [36] was above 176.6 days; in data set [37], above 60 days; in data set [39], 117.6 days; in data set [40], 75.25 days. Further, the outcome in data set [32] and in [35] was Active. The outcome in [33] and in data set [38] was inactive.

Take `CO/N=C(\N)c1ccc(-c2ccc(-c3ccc(/C(N)=N/OC)cn3)o2)nc1`: the MSD in data set [29] was above 132.4 days; in [1], above 60 days; in data set [30] it was above 153.4 days; in [31], above 40.25 days; in data set [34] it was above 180 days; in data set [43] it was above 180 days. Besides, the MSD is above 42 days in data set [37], above 95.8 days in [39] and 70 days in data set [40]. The result in data set [32], in data set [41] and in [44] was Active. Further, the outcome in data set [33] and in data set [42] was inactive.

The values above are taken from ChEMBL document CHEMBL1649218, “New treatment option for second-stage African sleeping sickness: in vitro and in vivo efficacy of aza analogs of DB289” (Antimicrob Agents Chemother, 2009).
